Assay [1] deals with Vibrio vulnificus. In words: Antibacterial activity against Vibrio vulnificus MCCC E1758 assessed as bacterial growth inhibition measured after 24 hrs by resazurin dye based assay. The format is functional. On the technique in general: The colour change of resazurin is a common sign of viable cells or microbes.
The test system of assay [2] is Vibrio vulnificus. The experiment in a line: Antimicrobial activity against Vibrio vulnificus MCCC E1758 assessed as bacterial growth inhibition by resazurin dye based assay. The format is functional.
The subject of assay [3] is Vibrio campbellii. In words: Antimicrobial activity against Vibrio campbellii MCCC E333 assessed as bacterial growth inhibition by resazurin dye based assay. The format is functional.
Assay [4] concerns Vibrio vulnificus. In words: Antimicrobial activity against Vibrio vulnificus MCCC E333 assessed as bacterial growth inhibition by resazurin dye based assay. The format is functional.
Assay [5] deals with Vibrio vulnificus. The experiment in a line: Antimicrobial activity against Vibrio vulnificus MTCC1145 assessed as zone of inhibition in diameter per disc at 100 ug measured for 24 to 72 hrs. The format is functional. To be noted: time 24-72 hrs, read-out: IZ.
Assay [6] concerns Vibrio parahaemolyticus. The experiment in a line: Antimicrobial activity against Vibrio parahaemolyticus MTCC451 assessed as zone of inhibition in diameter per disc at 100 ug measured for 24 to 72 hrs. In kind it is functional. To be noted: time 24-72 hrs, read-out: IZ.
Assay [7] has as its system Vibrio sp. In words: Antibacterial activity against Vibrio sp. assessed as bacterial growth inhibition relative to control. The format is functional.
In assay [8] the test system is Vibrio anguillarum. The experiment in a line: Antimicrobial activity against Vibrio anguillarum QDIO-1 assessed as bacterial growth inhibition. In kind it is functional.
The test system of assay [9] is Vibrio campbellii. In words: Antibacterial activity against Vibrio campbellii MCCC E333 assessed as cell growth inhibition measured after 24 hrs by resazurin dye based assay. In kind it is functional.
The subject of assay [10] is Vibrio rotiferianus. In words: Antibacterial activity against Vibrio rotiferianus MCCC E385 assessed as cell growth inhibition measured after 24 hrs by resazurin dye based assay. In kind it is functional.
Assay [11] concerns Vibrio vulnificus. In words: Antibacterial activity against Vibrio vulnificus MCCC E1758 assessed as cell growth inhibition measured after 24 hrs by resazurin dye based assay. The format is functional.
The test system of assay [12] is Vibrio brasiliensis. The experiment in a line: Antimicrobial activity against Vibrio brasiliensis assessed as bacterial growth inhibition. In kind it is functional.
Assay [13] has as its system Vibrio mediterranei. The experiment in a line: Antimicrobial activity against Vibrio mediterranei assessed as bacterial growth inhibition. The format is functional.
For assay [14], the system named is Vibrio scophthalmi. The experiment in a line: Antimicrobial activity against Vibrio scophthalmi assessed as bacterial growth inhibition. The format is functional.
The test system of assay [15] is Vibrio alginolyticus. The experiment in a line: Antibacterial activity against Vibrio alginolyticus assessed as zone of inhibition measured after 24 to 48 hrs by agar well diffusion assay. In kind it is functional. Conditions: time 24-48 hrs. On the technique in general: A growth-free zone around the sample is the usual read-out of agar diffusion tests.
Assay [16] has as its system Vibrio cholerae. The experiment in a line: Antibacterial activity against Vibrio cholerae assessed as zone of inhibition measured after 24 to 48 hrs by agar well diffusion assay. Conditions: time 24-48 hrs. The format is functional.
In assay [17] the test system is Vibrio parahaemolyticus. The experiment in a line: Antibacterial activity against Vibrio parahaemolyticus assessed as zone of inhibition measured after 24 to 48 hrs by agar well diffusion assay. In kind it is functional. To be noted: time 24-48 hrs.
The test system of assay [18] is Vibrio harveyi. In words: Antimicrobial activity against Vibrio harveyi BB120 assessed as bacterial growth reduction by bioluminescence based Quorum-Sensing assay. The format is functional, organism-based.
The test system of assay [19] is Vibrio sp. In words: Antibacterial activity against Vibrio sp. assessed as bacterial growth inhibition by GC-MS analysis. In kind it is functional.
Assay [20] has as its system Vibrio harveyi. The experiment in a line: Antimicrobial activity against Vibrio harveyi assessed as bacterial growth inhibition. In kind it is functional.
Assay [21] relates to Vibrio natriegens. In words: Antimicrobial activity against Vibrio natriegens assessed as bacterial growth inhibition. In kind it is functional.
For assay [22], the system named is Vibrio proteolyticus. The experiment in a line: Antimicrobial activity against Vibrio proteolyticus assessed as bacterial growth inhibition. The format is functional.
Assay [23] relates to Vibrio vulnificus. In words: Antimicrobial activity against Vibrio vulnificus assessed as bacterial growth inhibition by MTT assay. The format is functional. A general note: Tetrazolium assays rely on reduction of a dye to a coloured formazan, in cell work by metabolically active cells.
The test system of assay [24] is Vibrio parahaemolyticus. The experiment in a line: Antimicrobial activity against Vibrio parahaemolyticus assessed as bacterial growth inhibition by MTT assay. In kind it is functional.
For assay [25], the system named is Vibrio anguillarum. In words: Antimicrobial activity against Vibrio anguillarum assessed as zone of inhibition per disk at 100 ug. The format is functional. Conditions: read-out: IZ.
Assay [26] concerns Vibrio harveyi. In words: Antimicrobial activity against Vibrio harveyi QDIO-7 assessed as bacterial growth inhibition by microplate reader assay. The format is functional.
In assay [27] the test system is Vibrio vulnificus. In words: Antimicrobial activity against Vibrio vulnificus QDIO-7 assessed as bacterial growth inhibition by microplate reader assay. In kind it is functional.
For assay [28], the system named is Vibrio harveyi. The experiment in a line: Antimicrobial activity against Vibrio harveyi assessed as bacterial growth inhibition by two fold dilution assay. In kind it is functional.
For assay [29], the system named is Vibrio alginolyticus. The experiment in a line: Antibacterial activity against Vibrio alginolyticus assessed as bacterial growth inhibition. The format is functional.
Assay [30] relates to Vibrio rotiferianus. In words: Antibacterial activity against Vibrio rotiferianus MCCC E385 assessed as bacterial growth inhibition measured after 24 hrs by resazurin dye based assay. The format is functional.
For assay [31], the system named is Vibrio vulnificus. The experiment in a line: Antimicrobial activity against Vibrio vulnificus QDIO-4 assessed as bacterial growth inhibition by microtiter plate reader analysis. In kind it is functional.
The subject of assay [32] is Vibrio alginolyticus. The experiment in a line: Antimicrobial activity against Vibrio alginolyticus QDIO-7 assessed as bacterial growth inhibition by microtiter plate reader analysis. The format is functional.
The subject of assay [33] is Vibrio anguillarum. The experiment in a line: Antimicrobial activity against Vibrio anguillarum assessed as bacterial growth inhibition by well diffusion method. The format is functional.
For assay [34], the system named is Vibrio parahaemolyticus. In words: Antimicrobial activity against Vibrio parahaemolyticus assessed as zone of inhibition in diameter per disk at 50 ug. In kind it is functional. Conditions: read-out: IZ.
For assay [35], the system named is Vibrio anguillarum. The experiment in a line: Antimicrobial activity against Vibrio anguillarum assessed as zone of inhibition in diameter per disk at 50 ug. In kind it is functional. To be noted: read-out: IZ.
Assay [36] concerns Vibrio harveyi. In words: Antimicrobial activity against Vibrio harveyi assessed as zone of inhibition in diameter per disk at 50 ug. In kind it is functional. To be noted: read-out: IZ.
Assay [37] has as its system Vibrio splendidus. In words: Antimicrobial activity against Vibrio splendidus assessed as zone of inhibition in diameter per disk at 50 ug. In kind it is functional. To be noted: read-out: IZ.
Assay [38] concerns Vibrio parahaemolyticus. In words: Antibacterial activity against Vibrio parahaemolyticus assessed as bacterial growth inhibition by broth microdilution. In kind it is functional.

Converted amounts (≈) assume the structure as drawn.

A word on the MIC: it is the smallest concentration in the dilution series that meets the test's criterion for growth inhibition. `CC[C@H](C)/C=C/C1=CC2=C(Cl)C(=O)[C@@]3(C)OC(=O)C(C(=O)[C@@H](C)[C@@H](C)O)=C3C2=CN1CCOCCO`: the MIC in [1] was 7.4 µg/mL (≈ 14.2 µM). Consider `Cc1c(O)cc(O)cc1[C@H](C)[C@@H](C)OC=O`, for which the minimal inhibitory concentration (MIC) in assay [2] amounted to 15.7 µg/mL (≈ 70 µM); in [3] it was 15.6 µg/mL (≈ 69.6 µM). Regarding `Cc1c(O)c(C)c2c(c1O)C(=O)O[C@](C)(O)[C@H]2C`, the MIC in assay [2] came to 16.6 µg/mL (≈ 65.8 µM); in assay [4] it was 15.3 µg/mL (≈ 60.7 µM). In the case of `CC[C@@H](O)/C=C/CC(=O)O[C@@H]1/C=C/C=C\C[C@H](O)C[C@@H](O)/C=C/C=C\CCC[C@@H](C)OC(=O)/C=C\C=C\C1`, the zone of inhibition at 100 µg/disc amounted to 14.3 mm in assay [5] and 16 mm in assay [6].

For the compound `COc1cc(-c2ccc(O)cc2)c(OC)c(O)c1-c1ccc(O)cc1` [TERPHENYLLIN], the “inhibition (INH)” value in [7] is on record as above 80%.

Turning to `CC(C)[C@@H](C)/C=C/[C@@H](C)[C@H]1CC[C@@H]2[C@]1(C)CC[C@H]1[C@]23O[C@H]3C(=O)C2=CC(=O)CC[C@@]21C`, the MIC in assay [8] was found to be 32 µg/mL (≈ 75.4 µM). Consider `COc1cc2oc3c(OC)c(-c4ccc(O)c(CC=C(C)C)c4)cc(OC)c3c2cc1O`, for which the MIC in assay [9] was found to be 15.6 µg/mL (≈ 35.9 µM); in [10], 7.75 µg/mL (≈ 17.8 µM); in assay [11] it was 7.77 µg/mL (≈ 17.9 µM). As for `C=C(C(C)C)[C@H](C[C@@H](C)[C@H]1CC[C@H]2[C@@H]3C(=O)C=C4C[C@@H](O)CC[C@]4(C)[C@H]3CC[C@]12C)OC(C)=O`, the MIC in assay [12] is 9 µg/mL (≈ 19.1 µM); in [13], 8 µg/mL (≈ 17 µM); in assay [14], 8 µg/mL (≈ 17 µM). Take `CCCCCCCCCCCCC(=O)NCCC(C)C`: the results for the “inhibition zone (IZ)” value in [15], in [16] and in assay [17] were 16.3 mm, 13.7 mm and 9.66 mm, respectively. Usually EC50 stands for the midpoint of the concentration-response curve. For the compound `CC(C)CC(=O)NCCc1ccccc1`, the EC50 in assay [18] is 9 µg/mL (≈ 43.8 µM). `O=C1CCC2(CCC(=O)N2)N1`: in assay [19], the MIC was at most 0.78 µg/mL. On to `C=CC(C)(C)C1(CC2NC(=O)c3ccccc3N(C)C2=O)C(=O)N(O)c2ccccc21` (centres undefined), for which the MIC in [20] was 1 µg/mL (≈ 2.38 µM); in assay [21] it was 1 µg/mL (≈ 2.38 µM); in assay [22] it was 0.1 µg/mL (≈ 0.238 µM).

With `CC(=O)c1ccccc1C[C@@H](O)/C=C/CC(=O)O[C@@H]1/C=C/C=C\C[C@H](O)C[C@@H](O)/C=C/C=C/CCC[C@@H](C)OC(=O)/C=C\C=C\C1`, the MIC in [23] and in assay [24] was 3.12 µg/mL (≈ 4.93 µM) throughout. As to `COc1cc(O)c2c(=O)oc3cc(O)cc(C)c3c2c1`, the zone of inhibition at 100 µg/disc in [25] amounted to 9 mm. As for `COC(=O)CCc1oc2cc(O)cc(C)c2c1-c1cc(O)c(C)c(O)c1C`, the figures for the MIC in [26] and in [27] were 32 µg/mL and 64 µg/mL, respectively. Consider `COC(=O)C1=CC(=O)C=C(OC)C12Oc1cc(C)cc(OC)c1C2=O` (centres undefined) [TRYPACIDIN], for which the MIC in [28] was determined as 31.2 µg/mL (≈ 90.6 µM). `CCCCCCC(O)CCCCCC/C=C/C(O)C1C=C(NC(C)=O)C(=O)O1` (centres undefined): in [29], the MIC is 8 µg/mL (≈ 20.2 µM). On to `CC[C@H](C)/C=C/C1=CC2=C(Cl)C(=O)[C@@]3(C)OC(=O)C(C(=O)[C@@H](C)[C@@H](C)O)=C3C2=CN1NC(=O)c1ccc(O)cc1`, for which, in [30], the MIC came to 7.3 µg/mL (≈ 12.9 µM). Turning to `CC(=O)OC/C=C\c1ccc(O)cc1CO`, the MIC in assay [31] and in [32] was 8 µg/mL throughout. For `C=C(C)[C@H]1O[C@H]2CC[C@@]3(C)[C@@](O)(CC[C@@]4(O)[C@@H]5OC(C)(C)[C@H]6C[C@@H]7C(=C)Cc8c(Cl)cc9[nH]c(c5c9c8[C@@]76O)[C@]34C)[C@]23O[C@@H]3[C@H]1O`, the MIC in [33] turned out to be 16 µg/mL (≈ 24.6 µM). As for `Cc1cc(O)cc(O)c1-c1cc2cc(O)cc(O)c2c(=O)o1`, the zone of inhibition at 50 µg/disc in assay [34], in assay [35], in [36] and in assay [37] was 7 mm throughout. With `COC(=O)[C@@H](C)CCc1cc(O)c(C)cc1O`, the MIC in [38] amounted to 12.5 µg/mL (≈ 52.5 µM).

These data come from ChEMBL document CHEMBL5360560, “Anti-Vibrio potential of natural products from marine microorganisms” (Eur J Med Chem, 2023).
